Reference: ChEMBL document CHEMBL4152359, “Synthesis and biological evaluation of novel heteroring-annulated pyrrolino-tetrahydroberberine analogues as antioxidant agents” (Bioorg Med Chem, 2018)
The source made the active and inactive calls. No cut-off for these calls is given here.

Experiments:
DNA = experiment: Antioxidant activity assessed as protection against ferrous ions and dioxygen-induced free radical-mediated DNA strand break in pEMBL8 supercoiled DNA preincubated with DNA followed by (NH4)2Fe(SO4)2.6H2O addition measured after 6 mins by ethidium bromide staining based agarose gel electrophoresis method; type: functional
NCTC-2544 [1] = experiment: Cytotoxicity against human NCTC-2544 cells assessed as reduction in cell viability at 30 uM up to 72 hrs by WST8 assay; type: cell-based; conditions: nctc-2544, 72 h
NCTC-2544 [2] = experiment: Antioxidant activity in human NCTC-2544 cells assessed as reduction in H2O2-induced ROS level at 30 uM preincubated up to 3 hrs followed by H2O2 addition measured for 30 mins by DCFH-DA staining based fluorescence assay; type: functional, cell-based
NCTC-2544 [3] = experiment: Antioxidant activity in human NCTC-2544 cells assessed as reduction in H2O2-induced ROS level at 30 uM preincubated with cells followed by H2O2 addition measured after 24 hrs by DCFH-DA staining based fluorescence assay; type: functional
[4] = Antioxidant activity assessed as trolox equivalents of AAPH-induced radical scavenging activity by ORAC-FL assay; type: functional
NCTC-2544 [5] = experiment: Cytotoxicity against human NCTC-2544 cells assessed as reduction in cell viability at 30 uM at 72 hrs by WST8 assay relative to control; type: cell-based; conditions: nctc-2544, 72 h
NCTC-2544 [6] = experiment: Antioxidant activity in human NCTC-2544 cells assessed as reduction in intracellular oxidation level at 30 uM after 24 hrs by DCFH-DA staining based fluorescence assay; type: functional, cell-based
NCTC-2544 [7] = experiment: Antioxidant activity in human NCTC-2544 cells assessed as reduction in intracellular oxidation level at 30 uM after 1 hr by DCFH-DA staining based fluorescence assay; type: functional, cell-based
NCTC-2544 [8] = experiment: Antioxidant activity in human NCTC-2544 cells assessed as reduction in intracellular oxidation level at 30 uM after 3 hrs by DCFH-DA staining based fluorescence assay; type: functional, cell-based

SMILES | EC50 (DNA) | Activity (NCTC-2544 [1]) | Activity (NCTC-2544 [2]) | Activity (NCTC-2544 [3]) | Activity [4] | Activity (NCTC-2544 [5]) | Activity (NCTC-2544 [6]) | Activity (NCTC-2544 [7]) | Activity (NCTC-2544 [8])
COC(=O)C1=C(C)N(NC(=O)OC(C)(C)C)C23c4cc5c(cc4CCN2Cc2c(ccc(OC)c2OC)C13)OCO5 (centres undefined) | 119 µM | Non-Toxic | Active | inactive | 1470 equiv | – | – | – | –
COC(=O)C1=C(C)N(NC(=O)Nc2ccccc2)C23c4cc5c(cc4CCN2Cc2c(ccc(OC)c2OC)C13)OCO5 (centres undefined) | 63 µM | Non-Toxic | Active | inactive | 1160 equiv | – | – | – | –
COc1ccc2c(c1OC)CN1CCc3cc4c(cc3C13C2C(P(=O)(OC)OC)=C(C)N3NC(=O)OC(C)(C)C)OCO4 (centres undefined) | 196 µM | – | Active | inactive | 1130 equiv | 35% | – | – | –
COc1ccc2c(c1OC)CN1CCc3cc4c(cc3C1C2)OCO4 (centres undefined) [TETRAHYDROBERBERINE] | 93 µM | – | Active | inactive | 1580 equiv | – | inactive | – | –
CCOC(=O)NN1C(C)=C(C(=O)OCC)C2c3ccc(OC)c(OC)c3CN3CCc4cc5c(cc4C231)OCO5 (centres undefined) | 407 µM | Non-Toxic | Active | inactive | 955 equiv | – | – | Active | –
COC(=O)NN1C(C)=C(C(=O)OC)C2c3ccc(OC)c(OC)c3CN3CCc4cc5c(cc4C231)OCO5 (centres undefined) | 683 µM | Non-Toxic | Active | inactive | 855 equiv | – | – | – | –
CCOC(=O)C1=C(C)N(NC(=O)OC(C)(C)C)C23c4cc5c(cc4CCN2Cc2c(ccc(OC)c2OC)C13)OCO5 (centres undefined) | 74 µM | Non-Toxic | Active | 37% | 1560 equiv | – | Active | Active | Active
COc1ccc2c(c1OC)CN1CCc3cc4c(cc3C13C2C(C(=O)Nc1ccccc1)=C(C)N3NC(=O)Nc1ccccc1)OCO4 (centres undefined) | 140 µM | Non-Toxic | Active | inactive | 185 equiv | – | – | – | –
